Reference: patent publication US9718846B1, “Crystalline polymorphs of benfotiamine, process for preparation and its use thereof” (Shanghai Ri Xin Biotechnolgy Co., Ltd., priority 2012, dated 2017)

Key:
[1] = Dynamic vapor sorption analysis of hygroscopicity; format: physicochemical; conditions: RH from 5% to 95%, comparison of forms A, C, D, E
Excerpt: Dynamic vapor sorption analysis was used for measurement of the hygroscopicity of crystalline form A, C, D, and E under the scope of relative humidity (RH) from 5% to 95%.

[2] = Solubility in methanol/dichloromethane mixture; format: physicochemical; conditions: methanol/dichloromethane mixture (1:3 v/v), organic solvent or mixture; mixture organic solvent of methanol and dichloromethane (volume ratio 1:3)
Description: In 200 μl of a mixture organic solvent of methanol and dichloromethane (volume ratio 1:3) was added 10 mg of the crystalline form E of benfotiamine (solubility 50 mg/ml). Then, 1 ml of the poor solvent of ethanol was slowly added to the mixture along device wall. Precipitated crystals were collected by filtration, followed by evaporated in the air.

SMILES | hygroscopicity rank among the four crystalline forms [1] | solubility [2]
C/C(=C(\CCO[P+]([O-])(O)O)SC(=O)c1ccccc1)N(C=O)Cc1cnc(C)nc1N [crystalline form D, S-benzoylthiamine O-monophosphate] | highest | –
C/C(=C(\CCO[P+]([O-])(O)O)SC(=O)c1ccccc1)N(C=O)Cc1cnc(C)nc1N [crystalline form E, S-benzoylthiamine O-monophosphate] | lowest | 50 mg/mL
